The structures appear in SMILES notation.

The data set is described as follows: Human HepG2 cell viability assay in 384 well format. It counts as toxicity, cell-based. On the set-up: dose 125 nL, time 70.5 hour; cytotoxicity at 70.5 h: concentration not given beside the values. Particulars: HepG2 cells, read-out: Inhibition.
With `CCc1nc(C2CCCN2Cc2cc(=O)n(C)c(=O)n2C)no1` (stereo unspecified), the cytotoxicity at 70.5 h was -16.4%.
The figure for `Cc1ccc(C)c(NC(=O)N2CCC3(CC2)NC(=O)CC3C(=O)O)c1` (stereo unspecified) is -2.48%; for `Cn1nc(Br)nc1Sc1ccccc1NC(=O)C1CC1` it is 1.89%; for `CC(C)CNC(=O)C1CC(=O)N(c2n[nH]c3ccccc23)C1` (stereo unspecified) it is -5.36%.
The result for `CC(C)N1CCn2c(COCC3CCOCC3)cnc2C1C` (stereo unspecified) reads -1.85%; that for `Cc1nc(C)n(CC2CCCN(CC(=O)Nc3cc(C)on3)C2)n1` (stereo unspecified), -2.38%.
Consider `Cc1cc(C(C)(O)CNC(=O)c2ccc(Br)o2)c(C)o1` (stereo unspecified), for which the cytotoxicity at 70.5 h was -0.275%.
Take `CC(C)c1nn(C)c(N(C)C)c1CNCc1cccc2c1OCO2`: the cytotoxicity at 70.5 h is -3.25%.
`CCN1CC[C@@]2(C(=O)N(C)C)CCN(C(=O)NC(C)C)CC[C@@H]12`: the cytotoxicity at 70.5 h was -4.36%.
Regarding `O=C1CC(NCc2cccc(O)c2)CN1CCc1cccc(Cl)c1` (stereo unspecified), the cytotoxicity at 70.5 h was determined as 14.8%.
Turning to `Cc1cnc(CN(C)C2CCN(CC(=O)N(C)c3nccs3)C2)o1` (stereo unspecified), the cytotoxicity at 70.5 h was 42.1%.
The result for `O=C(CCc1ccco1)NS(=O)(=O)Cc1ccon1` reads -3.83%; that for `CC(CCc1ccccc1F)C(=O)NS(=O)(=O)CC1CC1` (stereo unspecified), -0.115%.
As to `CC(C)Oc1ncccc1CNC(=O)C1CCCN(C(=O)C2CC2)C1` (stereo unspecified), the cytotoxicity at 70.5 h was determined as 6.38%.
The figure for `Cc1cnc(NCc2ccncc2)nc1-c1cnn(C)c1` is 12.6%; for `CCc1ncc(CN[C@@H]2CCCN(C(C)=O)[C@H]2c2ccc(C)s2)cn1` it is -6.59%.
With `O=C(NC1CCc2nccn2C1)c1ccc(OCC2CC2)nc1` (stereo unspecified), the cytotoxicity at 70.5 h is -7.7%.
Take `Cc1cc2n(n1)CC(CNCc1ccc(-n3cccn3)cc1)CN2` (stereo unspecified): the cytotoxicity at 70.5 h was -0.128%.
The figure for `Cc1occc1C(=O)NCC(=O)N1CCC(COc2ccccc2)CC1` is -2.93%; for `CC(CNC(=O)c1cnccn1)Oc1cccc(Br)c1` (stereo unspecified) it is 12.9%; for `COc1ccnc(N(C)Cc2ccccc2O)n1` it is 1.42%.
For `CCc1cnc(NCCS(=O)(=O)N(C)C)nc1`, the cytotoxicity at 70.5 h was determined as 20.6%.
The figure for `Cc1ccnc(NC(=O)c2ccc(C)o2)c1` is 12.1%.
The result for `Cc1cc(S(C)(=O)=O)c(C)c(S(=O)(=O)NCC2CCCO2)c1` (stereo unspecified) reads -16.8%; that for `COc1cc(CNC2CCc3nc(C(C)C)nn3C2)cc2c1OCO2` (stereo unspecified), -13.1%.
Turning to `CN(Cc1csc2ccccc12)C(=O)NC1CCS(=O)(=O)C1` (stereo unspecified), the cytotoxicity at 70.5 h is -7.9%.
Regarding `CCN(Cc1csc(CS(C)(=O)=O)n1)c1cccc(CO)c1`, the cytotoxicity at 70.5 h is -6.41%.
Turning to `CCc1n[nH]c(SCC(=O)N2C[C@@H]3CC[C@H](C2)N(CC=C(C)C)C3)n1`, the cytotoxicity at 70.5 h is 0.686%.
With `CCc1nc2c(s1)C(N(C)C(C)=O)CCC2` (stereo unspecified), the cytotoxicity at 70.5 h is -7.14%.
For `Cc1oncc1C(=O)N1C[C@H](OCc2ccccn2)[C@H]2OCCC[C@H]21`, the cytotoxicity at 70.5 h was -11.5%.
The figure for `CNC(=O)[C@H]1C[C@@H]2CN(C(=O)c3ccc(C)nc3)C[C@@H]2N1C` is -15.1%; for `Cc1nn(C)c(Cl)c1C1CCCN1CC(=O)NC1CCCCC1` (stereo unspecified) it is 5.03%.
As to `O=C(O)C1(Cc2cccc(Cl)c2)CCCN(c2ncnc3[nH]ccc23)C1` (stereo unspecified), the cytotoxicity at 70.5 h is -13%.
The result for `Cn1ccnc1C1(O)CCCN(Cc2ccncc2)CC1` (stereo unspecified) reads -2.25%; that for `Cc1cnn(C2CCCN(C(=O)c3cn(-c4ccccc4)nc3C)C2)c1` (stereo unspecified), -6.2%.
For `COc1ccc(CCN2CCCC2Cn2nc(C)nc2C)cc1` (stereo unspecified), the cytotoxicity at 70.5 h was found to be 17.7%.
The figure for `Oc1cc(C2CCCCN2C2CCCC2)nc(-c2ccncc2)n1` (stereo unspecified) is -14.1%; for `COCCN1C[C@@H]2CN(C(=O)CC3CC3)C[C@@H]2C1=O` it is -6.26%.
The figure for `Cc1nn(C)c(C)c1S(=O)(=O)N(CC(N)=O)CC(C)C` is -8.24%; for `Cc1ccc(-n2nnc(C(=O)O)c2C)c(C)c1` it is 0.943%.
The result for `Cc1ccc(C(CNC(=O)NCc2ccccn2)N2CCOCC2)o1` (stereo unspecified) reads 13.1%; that for `CCC(C)(CC(=O)OC)NC(=O)c1ccc(C(C)=O)cc1` (stereo unspecified), 23.7%.
Regarding `Cc1cn([C@@H]2CC3(CCNCC3)OC[C@@]2(C)O)c(=O)[nH]c1=O`, the cytotoxicity at 70.5 h was 0.487%.
`O=C(N[C@@H]1CCNC[C@H]1O)c1ccc(-c2ccc(F)cc2)cc1`: the cytotoxicity at 70.5 h was -1.9%.
Take `CNC(=O)CCc1cc(C2CCCCN2C(C)C)nc(C)n1` (stereo unspecified): the cytotoxicity at 70.5 h was -1.6%.
On to `CNC(=O)C1(CCCc2ccccn2)CN(Cc2coc(C)n2)C1`, for which the cytotoxicity at 70.5 h is -5.7%.
For `CCc1ncnc(N2CCOCC2C(N)=O)c1F` (stereo unspecified), the cytotoxicity at 70.5 h is -5.74%.
`COc1ccc(-n2c(SCC(=O)O)nnc2-c2cn[nH]c2)cc1`: the cytotoxicity at 70.5 h was 15.3%.
As for `O=C(NCc1cccnc1)C1=NOC2(CCN(S(=O)(=O)C3CC3)C2)C1` (stereo unspecified), the cytotoxicity at 70.5 h is -10.8%.
For `O=C(C1CCCC1)N1CCC2(CC1)COCCN2CC1CC1`, the cytotoxicity at 70.5 h is -12.4%.
The result for `CCC(=O)N1CCC(c2ncncc2C)CC1` reads -1.94%.
As for `CCn1cc(S(=O)(=O)N(CCc2ccccc2)Cc2ccn(C)n2)cn1`, the cytotoxicity at 70.5 h was -11.1%.
The figure for `Clc1ccc2cccnc2c1CN1CCCC(Cn2cncn2)C1` (stereo unspecified) is -14.3%; for `O=C(NCCCN1CCOCC1)c1nc(-c2ccc3cc[nH]c3c2)no1` it is -16.3%; for `Fc1ccc(N2CCN(CCCc3cn[nH]c3)CC2)cc1` it is 12%.
For the compound `COCC1Cn2nnc(-c3cnn(C)c3)c2CN1Cc1ccco1` (stereo unspecified), the cytotoxicity at 70.5 h was 5.04%.
The result for `CC(C)COC(C)C(=O)NCc1ccc(OC(C)C)nc1` (stereo unspecified) reads -3.57%.
The result for `Cc1noc(C)c1CN(Cc1cccs1)C1CCS(=O)(=O)C1` (stereo unspecified) reads 15.7%.
For the compound `Cc1noc(C)c1CN1CCn2c(CN3CCN(C)CC3)cnc2C1`, the cytotoxicity at 70.5 h is -14.6%.
The figure for `CN(C)c1ccc(C(=O)N2CCCC2c2ccc(Cl)cc2)nn1` (stereo unspecified) is -11.3%; for `Cc1nn(-c2ncnc3[nH]cnc23)c2c1C(CC(C)C)CC(=O)N2` (stereo unspecified) it is -2.59%.
Turning to `O=S(=O)(c1ccccc1Cl)N1CCCC(c2ncc[nH]2)C1` (stereo unspecified), the cytotoxicity at 70.5 h was -3.85%.
The figure for `CCS(=O)(=O)N1CC(=O)N(CCCc2ccccc2)CC(O)C1` (stereo unspecified) is -3.91%; for `O=C(c1nc(Cc2c[nH]c3ccccc23)no1)N1CCOCC1` it is -3.8%; for `O=C(CS(=O)(=O)Cc1nnnn1C1CC1)NCC1CC1` it is -4.04%.
The result for `Cc1c(CS(C)(=O)=O)cccc1NCCCC1CCCC1` reads -7.83%; that for `CN(C)[C@@H]1CN(C(=O)Cc2cccs2)[C@@H]2CCCO[C@H]12`, -5.81%; that for `FC(F)(F)c1nc(NC2CCCC2)c2ccccc2n1`, -12.8%.
On to `CC(C)NC(=O)CCNC(=O)c1cc(Br)cn1C(C)C`, for which the cytotoxicity at 70.5 h was 1.21%.
Turning to `COc1cccc(-n2cc(-c3ccnc(N[C@H](CO)C(C)C)n3)cn2)c1`, the cytotoxicity at 70.5 h is -2.44%.
The figure for `Cc1occc1C(=O)N1CCC2(CCC2NC(=O)c2ccn(C)c2)CC1` (stereo unspecified) is -2.29%.

The record behind these values is ChEMBL document CHEMBL3507680, “University of Dundee, Gates Library screen for HepG2 cell viability”.
